Read-outs that look alike come from different tables or passages of the source.
Key:
LPS-activated BV-2 cells [1] = tested on: LPS-activated BV-2 cells; set-up: method as in Kagawa et al. [2023]; settings: five-fold higher concentration than 10 µM; ref Kagawa et al. [2023]; cited from earlier work
[2] = set-up: method as in PubChem [2021]; settings: ref PubChem [2021]; cited from earlier work
LPS-activated BV-2 cells [3] = tested on: LPS-activated BV-2 cells; set-up: method as in Kagawa et al. [2023]; settings: 50 µM; ref Kagawa et al. [2023]; cited from earlier work
LPS-activated BV-2 cells [4] = tested on: LPS-activated BV-2 cells; set-up: method as in Duffy et al. [2017]; settings: 50 µM; ref Duffy et al. [2017]; cited from earlier work
FABP4 = target: FABP4; set-up: method as in Floresta et al. [2017]; settings: ref Floresta et al. [2017]; cited from earlier work
BV-2 cells [5] = tested on: BV-2 cells; set-up: method as in Kagawa et al. [2023]; settings: 50 µM; ref Kagawa et al. [2023]; cited from earlier work
[6] = 1D 1H NMR aqueous solubility in phosphate buffer; type: physicochemical; settings: kinetic from dmso stock, phosphate buffer pH 7.4 in D2O, 0.1% d6-DMSO, 25 °C, range 3.125–100 µM, read-out: Soluble in phosphate buffer up to (concentration)
Protocol: 1D ^1H NMR was employed to determine the solubility limits of the four MFP compounds and BMS309403 in phosphate buffer. This method has been commonly used to determine compound solubility in the drug discovery setting (Devine et al. [2014]; Lee et al. [2015b]; Lin et al. [2009]). A 100 mM of stock solution of each compound was first prepared in d6-DMSO. These stock solutions were then added into phosphate buffer (50 mM sodium phosphate, 25 mM NaCl, 100 µM of DSS, pH 7.4 in D2O) to achieve a final d6-DMSO concentration of 0.1% (v/v) which is equivalent to the DMSO concentration present in BV-2 cell culture experiments. All samples were inspected to note whether visible precipitates were formed. ^1H NMR spectra for all of the samples were acquired using Bruker Avance III 600 MHz spectrometer at 25 °C. Experimental data were acquired using a relaxation delay of 5 s with 128 scans, and water suppression using an excitation sculpting pulse scheme. Mestrelab Research 13.0 software was used to integrate the proton resonances of the compounds. A well-resolved peak (i.e. no overlaps with any other peaks) in the spectrum of each compound was chosen for integration, relative to the DSS peak (at 0 ppm). […] In addition, the chemical shifts of the resonances in the 1D ^1H NMR spectra were monitored.

LPS-activated BV-2 cells [7] = experiment: Intracellular ROS (DCF-DA) in LPS-activated BV-2 cells; type: cell-based, mouse; settings: 2 h pre-treatment then co-treatment with 1 µg/mL LPS 24 h, vs LPS-only
Protocol: BV-2 cells were cultured in DMEM/F-12 media supplemented with 10% (v/v) FBS and 1% (v/v) penicillin/streptomycin, and kept at 37 °C in a humidified incubator ([…], 5% CO2) for all studies. Cells with 80% confluency were used for experiments. […] In some experiments (detailed in Results), BV-2 cells were exposed to MFP compounds for 2 h before a 24 h exposure to LPS and MFP compounds, and in some studies, in the presence of FABP4 siRNA using a 24 h treatment that we have previously employed (Low et al. [2021]). In brief, BV-2 cells were washed once 4 h post-seeding with blank DMEM/F-12 media. siRNA complexes (containing FABP4 siRNA, target sequence 5’-[…]-3’ or AllStar Negative Control siRNA, target sequence proprietary) were added dropwise onto the cells. siRNA complexes were prepared by mixing siRNA and HiPerfect transfection reagent together in FBS-free DMEM/F12 media and incubating for 15 min to allow the siRNA complexes to form. The cells were incubated with the siRNA complex for 5 min, after which, DMEM/F12 media containing FBS was added into each well to dilute the siRNA complexes to 5 nM.
Intracellular ROS in BV-2 cells, following treatment with MFP compounds and LPS, was detected using the widely-used membrane permeable probe, DCF-DA. Post treatment, BV-2 cells were rinsed once with warm HBSS prior to being incubated with 40 µM of DCF-DA for 30 min at 37°C, 5% CO2. The wells were then rinsed again with HBSS before being read on a Perkin-Elmer Enspire plate reader (λex: 488 nm, λem: 535 nm) as we have reported previously (Kagawa et al. [2023]).

LPS-activated BV-2 cells [8] = experiment: Extracellular nitrite (Griess assay) from LPS-activated BV-2 cells; type: cell-based, mouse; settings: 50 µM, 1 µg/mL LPS 24 h
Protocol: BV-2 cells were cultured in DMEM/F-12 media supplemented with 10% (v/v) FBS and 1% (v/v) penicillin/streptomycin, and kept at 37 °C in a humidified incubator ([…], 5% CO2) for all studies. Cells with 80% confluency were used for experiments. At 24 h post-seeding, BV-2 cells were treated with either of the MFP compounds (at concentrations detailed below) or vehicle (0.1% (v/v) DMSO) and 1 µg/mL LPS for a period of 24 h. In some experiments (detailed in Results), BV-2 cells were exposed to MFP compounds for 2 h before a 24 h exposure to LPS and MFP compounds, and in some studies, in the presence of FABP4 siRNA using a 24 h treatment that we have previously employed (Low et al. [2021]). […]
For measurement of extracellular nitrite concentrations, the Griess assay was performed as per the manufacturer’s protocol (Molecular Probes, Eugene, OR) with minor changes. […] The absorbance of the media samples was measured on a Perkin-Elmer Enspire plate reader at 548 nm, with nitrite concentrations in media samples obtained by back calculating sample absorbance values back to a standard curve prepared through serial dilution of NaNO2 prepared in media.

BV-2 cells [9] = experiment: MTT assay of BV-2 cell viability; type: cell-based, mouse; settings: 24 h; for fold reduction in cell viability: 75 µM and 100 µM of MFP-0012328, 100 µM of the other MFP compounds, range over the compounds; for BV-2 cell viability relative to vehicle control: 2–50 µM, MTT
Protocol: BV-2 cells were cultured in DMEM/F-12 media supplemented with 10% (v/v) FBS and 1% (v/v) penicillin/streptomycin, and kept at 37 °C in a humidified incubator ([…], 5% CO2) for all studies. Cells with 80% confluency were used for experiments. At 24 h post-seeding, BV-2 cells were treated with either of the MFP compounds (at concentrations detailed below) or vehicle (0.1% (v/v) DMSO) and 1 µg/mL LPS for a period of 24 h. In some experiments (detailed in Results), BV-2 cells were exposed to MFP compounds for 2 h before a 24 h exposure to LPS and MFP compounds, and in some studies, in the presence of FABP4 siRNA using a 24 h treatment that we have previously employed (Low et al. [2021]). In brief, BV-2 cells were washed once 4 h post-seeding with blank DMEM/F-12 media. siRNA complexes (containing FABP4 siRNA, target sequence 5’-[…]-3’ or AllStar Negative Control siRNA, target sequence proprietary) were added dropwise onto the cells. siRNA complexes were prepared by mixing siRNA and HiPerfect transfection reagent together in FBS-free DMEM/F12 media and incubating for 15 min to allow the siRNA complexes to form. The cells were incubated with the siRNA complex for 5 min, after which, DMEM/F12 media containing FBS was added into each well to dilute the siRNA complexes to 5 nM.
To determine the most appropriate and tolerable concentration of MFP compounds in BV-2 cells, an MTT assay was performed. Following treatment with increasing concentrations of MFP compounds for 24 h, BV-2 cells were rinsed once with PBS prior to being incubated with 0.45 mg/mL MTT reagent for 4 h in a 37 °C, 5% CO2 incubator. After that, the MTT reagent was removed and 150 µL of DMSO was added into all wells for 30 min. The plate was then immediately read on a Perkin-Elmer Enspire fluorescence plate reader (Boston, MA) at 540 nm. Background subtraction was performed before the percentage cell viability was calculated and expressed as a ratio of mean absorbance of MFP-treated cells over mean absorbance of vehicle-treated cells.

[10] = target: T1, Recombinantly-expressed human FABP4 (Homo sapiens, UniProt P15090); experiment: Isothermal titration calorimetry (ITC) binding affinity to FABP4; settings: one-site binding model
T1 construct: made in house
T1 sequence (P15090 whole entry): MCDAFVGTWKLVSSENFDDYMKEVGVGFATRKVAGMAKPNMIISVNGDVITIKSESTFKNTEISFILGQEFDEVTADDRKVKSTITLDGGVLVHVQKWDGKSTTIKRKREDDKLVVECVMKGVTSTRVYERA
Protocol: A prior fragment screen identified a series of bi-aryl sulfonamides that bound to FABP4. Analogues of this chemical sulfonamide scaffold were then purchased, which led to the identification of the compounds used in this study (MFP-0011462, MFP-0012314, MFP-0012318, and MFP-0012328). Their predicted LogP and tPSA values were calculated in Vortex v2020.1.117658-s (Dotmatics, Boston, MA). The binding affinity of these four compounds was characterised by isothermal titration calorimetry (ITC). ITC was carried out using an iTC200 microcalorimeter (MicroCal, United Kingdom) with a coin shaped sample cell (201.4 μL) with stirring at 1000 rpm at 25°C. Titrations were performed in an ITC buffer (50 mM sodium phosphate, 50 mM NaCl, pH 7.4 with 2% DMSO). Compounds were diluted from concentrated stocks in ITC buffer and loaded into the titration syringe at a concentration of 1 mM, with a final DMSO concentration of 2% (v/v). Recombinantly-expressed human FABP4 was prepared as described previously (Lee et al. [2015a]) in an identical buffer at a protein concentration of 80 μM and placed in the sample cell. A thermal equilibration step at 25°C was followed by an initial 180 s delay step and subsequently an initial 0.2 μL injection. 16 serial injections of the 1 mM compound solution (2 μL each) were made at intervals of 220 s with continuous stirring of the solution in the sample cell. The iTC200 control software was used to operate and acquire raw data as power (microcalories/sec) vs time (min). The data were processed using the Origin 7.0 software (MicroCal) and the binding affinity (KD) was calculated by fitting the data to a one-site binding model.

[11] = read-out: KD (ITC titration of FABP4, Figure S1)

| SMILES | reduction in LPS-mediated TNF-α release (LPS-activated BV-2 cells [1]) [%] | LogP [2] | reduction in ROS levels (LPS-activated BV-2 cells [3]) [%] | reduction in nitrite production (LPS-activated BV-2 cells [4]) [%] | Ki (FABP4) [nM] | toxicity to BV-2 cells (BV-2 cells [5]) | solubility [6] [µM] | % reduction in intracellular ROS production (mean ± SEM) (LPS-activated BV-2 cells [7]; 10 µM) | % reduction in intracellular ROS production (mean ± SEM) (LPS-activated BV-2 cells [7]; 50 µM) | attenuation of LPS-mediated release of nitrite (LPS-activated BV-2 cells [8]) [%] | fold reduction in cell viability (BV-2 cells [9]) | BV-2 cell viability relative to vehicle control (BV-2 cells [9]) | Kd [10, 11] [nM] | Kd ([10]; 25°C, pH 7.4, 2% DMSO, read-out: KD against FABP4) [nM] |
| --- | --- | --- | --- | --- | --- | --- | --- | --- | --- | --- | --- | --- | --- | --- |
| CCc1c(-c2ccccc2)c(-c2ccccc2)nn1-c1ccccc1-c1cccc(OCC(=O)O)c1 [BMS309403, 2-((2'-(5-Ethyl-3,4-diphenyl-1H-pyrazol-1-yl)-[1,1'-biphenyl]-3-yl)oxy)acetic acid] | 29.0 | 7.2 | 36.0 | 26.8 | < 2 | does not exhibit toxicity | ≥ 100 |  |  |  |  |  |  |  |
| COc1cc(S(=O)(=O)Nc2cccc(C(=O)O)c2)ccc1Cl [MFP-0011462] |  |  |  |  |  |  |  | 49 ± 0.04 (****p < 0.0001) % | 46 ± 0.08 (***p < 0.001) % | 12.2 | 0.17–0.27 fold | no significant differences | 694 |  |
| COc1ccc(S(=O)(=O)Nc2cccc(C(=O)O)c2)cc1Cl [MFP-0012314] |  |  |  |  |  |  |  | 40 ± 0.09 (**p < 0.01) % | 42 ± 0.07 (***p < 0.001) % |  | 0.17–0.27 fold | no significant differences | 885 |  |
| CNC(=O)c1ccc(S(=O)(=O)Nc2cccc(C(=O)O)c2)cc1 [MFP-0012318] |  |  |  |  |  |  |  |  | 54 ± 0.09 (****p < 0.0001) % |  | 0.17–0.27 fold | no significant differences |  | > 100000 |
